Source: ChEMBL document CHEMBL1201862, “PubChem BioAssay data set” (2004)
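Results reflect a 48-hour exposure of cells in 96-well plates to compound at five concentrations. Abbreviation: GI50, concentration required for 50% inhibition of growth.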 Activity calls are given as the source filed them. Rule as the data show it: active = GI50 up to about 1.1 µM and inactive = higher.

Columns and labels:
Experiment in all cases: inhibition of tumour cell growth, NCI panel, 48 h
A498 = tested on: A498
A549 = tested on: A549
CAKI-1 = tested on: CAKI-1
HCT-15 = tested on: HCT-15
HOP-62 = tested on: HOP-62
IGROV-1 = tested on: IGROV-1
M19-MEL = tested on: M19-MEL
NCI-H226 = tested on: NCI-H226
NCI-H23 = tested on: NCI-H23
OVCAR-3 = tested on: OVCAR-3
SF-268 = tested on: SF-268
SK-MEL-28 = tested on: SK-MEL-28
SK-MEL-2 = tested on: SK-MEL-2
SN12C = tested on: SN12C
SW-620 = tested on: SW-620
U-251 = tested on: U-251
UACC-257 = tested on: UACC-257
UO-31 = tested on: UO-31
MOLT-4 = tested on: MOLT-4

Row | SMILES | GI50 (A498) | GI50 (A549) | GI50 (CAKI-1) | GI50 (HCT-15) [µM] | GI50 (HOP-62) | GI50 (IGROV-1) | GI50 (M19-MEL) | GI50 (NCI-H226) | GI50 (NCI-H23) | GI50 (OVCAR-3) | GI50 (SF-268) | GI50 (SK-MEL-28) | GI50 (SK-MEL-2) | GI50 (SN12C) | GI50 (SW-620) | GI50 (U-251) | GI50 (UACC-257) | GI50 (UO-31) | GI50 (MOLT-4)
1 | O=C1C=C(Nc2ccccc2C(=O)c2ccccc2)c2ccccc2C1=O | > 100 µM (inactive) | > 100 µM (inactive) | > 100 µM (inactive) | 70.5 | > 100 µM (inactive) | > 100 µM (inactive) | 9.14 µM (inactive) | > 100 µM (inactive) | > 100 µM (inactive) | 70 µM (inactive) | > 100 µM (inactive) | > 100 µM (inactive) | > 100 µM (inactive) | 42.8 µM (inactive) | 87.9 µM (inactive) | 70.8 µM (inactive) | 5.85 µM (inactive) | > 100 µM (inactive) | –
2 | COC(=O)C1=C(c2cc(OC)c(OC)c(OC)c2)O[C@H](c2ccc3c(c2)OCO3)[C@H]1COC(C)=O | 21.4 µM (inactive) | – | 19.8 µM (inactive) | 22.1 | 21.5 µM (inactive) | 22.2 µM (inactive) | 20.7 µM (inactive) | 33 µM (inactive) | 19.1 µM (inactive) | 30.5 µM (inactive) | – | – | 27.2 µM (inactive) | 24.7 µM (inactive) | 25.2 µM (inactive) | 24.1 µM (inactive) | 40.7 µM (inactive) | 20.9 µM (inactive) | 18.7 µM (inactive)
3 | CN1CCc2ccccc2C(C(=O)c2ccc3c(c2)OCO3)C1=O (stereo unspecified) | > 100 µM (inactive) | > 100 µM (inactive) | > 100 µM (inactive) | > 100 | > 100 µM (inactive) | > 100 µM (inactive) | > 100 µM (inactive) | 99.5 µM (inactive) | 96.2 µM (inactive) | > 100 µM (inactive) | > 100 µM (inactive) | > 100 µM (inactive) | > 100 µM (inactive) | > 100 µM (inactive) | > 100 µM (inactive) | > 100 µM (inactive) | 90.2 µM (inactive) | 94 µM (inactive) | > 100 µM (inactive)
4 | O=C(CCc1nnc2s/c(=C\c3ccc(Cl)cc3Cl)c(=O)n12)Nc1cc(Cl)c(Cl)cc1Cl | > 10 µM (inactive) | > 10 µM (inactive) | > 10 µM (inactive) | > 10 | > 10 µM (inactive) | > 10 µM (inactive) | > 10 µM (inactive) | > 10 µM (inactive) | > 10 µM (inactive) | > 10 µM (inactive) | > 10 µM (inactive) | > 10 µM (inactive) | > 10 µM (inactive) | > 10 µM (inactive) | > 10 µM (inactive) | 72.4 µM (inactive) | > 10 µM (inactive) | > 10 µM (inactive) | > 10 µM (inactive)
5 | CCOC(=O)NNC(=O)NC12CC3CC(CC(C3)C1)C2 | > 100 µM (inactive) | > 100 µM (inactive) | > 100 µM (inactive) | > 100 | > 100 µM (inactive) | > 100 µM (inactive) | > 100 µM (inactive) | > 100 µM (inactive) | > 100 µM (inactive) | > 100 µM (inactive) | > 100 µM (inactive) | > 100 µM (inactive) | > 100 µM (inactive) | > 100 µM (inactive) | > 100 µM (inactive) | > 100 µM (inactive) | > 100 µM (inactive) | > 100 µM (inactive) | > 100 µM (inactive)
6 | COc1ccc(S(=O)(=O)N/N=C/CN2C(=O)c3ccccc3C2=O)cc1 | > 100 µM (inactive) | > 100 µM (inactive) | > 100 µM (inactive) | > 100 | > 100 µM (inactive) | > 100 µM (inactive) | > 100 µM (inactive) | 47 µM (inactive) | > 100 µM (inactive) | – | – | – | > 100 µM (inactive) | > 100 µM (inactive) | > 100 µM (inactive) | > 100 µM (inactive) | > 100 µM (inactive) | > 10 µM (inactive) | > 100 µM (inactive)
7 | CCOC(=O)C(=O)Nc1nc2ccc(C)cc2s1 | > 100 µM (inactive) | 32.4 µM (inactive) | > 100 µM (inactive) | > 100 | > 100 µM (inactive) | > 100 µM (inactive) | > 100 µM (inactive) | > 100 µM (inactive) | > 100 µM (inactive) | > 100 µM (inactive) | > 100 µM (inactive) | > 100 µM (inactive) | > 100 µM (inactive) | > 100 µM (inactive) | > 100 µM (inactive) | > 100 µM (inactive) | > 100 µM (inactive) | > 100 µM (inactive) | > 100 µM (inactive)
8 | Cc1[nH]c2c(C)cccc2c1C1Cc2ccccc2N1 (stereo unspecified) | 28.6 µM (inactive) | 21.7 µM (inactive) | – | 21.3 | 16.4 µM (inactive) | 17.3 µM (inactive) | 21.7 µM (inactive) | 23.8 µM (inactive) | 20.3 µM (inactive) | 16.7 µM (inactive) | 20.5 µM (inactive) | 18.8 µM (inactive) | 28.8 µM (inactive) | 21.2 µM (inactive) | 26.4 µM (inactive) | 20 µM (inactive) | 22.3 µM (inactive) | 22.1 µM (inactive) | 20.5 µM (inactive)
9 | COc1ccc(NC(=O)c2oc3cc(O)ccc3c(=O)c2C)c([N+](=O)[O-])c1 | > 100 µM (inactive) | > 100 µM (inactive) | > 100 µM (inactive) | > 100 | > 100 µM (inactive) | > 100 µM (inactive) | > 100 µM (inactive) | > 100 µM (inactive) | > 100 µM (inactive) | > 100 µM (inactive) | > 100 µM (inactive) | > 100 µM (inactive) | > 100 µM (inactive) | > 100 µM (inactive) | > 100 µM (inactive) | > 100 µM (inactive) | > 100 µM (inactive) | > 100 µM (inactive) | > 100 µM (inactive)
10 | CC(=O)Nc1ccc(C2[C@H]3C(=O)N(c4ccc(Cc5ccc(N6C(=O)[C@@H]7ON(c8ccccc8)C(c8ccc(NC(C)=O)cc8)[C@@H]7C6=O)cc5)cc4)C(=O)[C@H]3ON2c2ccccc2)cc1 (stereo partly specified) | > 100 µM (inactive) | > 100 µM (inactive) | 98.2 µM (inactive) | > 100 | > 100 µM (inactive) | > 100 µM (inactive) | 44.2 µM (inactive) | > 100 µM (inactive) | > 100 µM (inactive) | > 100 µM (inactive) | > 100 µM (inactive) | > 100 µM (inactive) | > 100 µM (inactive) | > 100 µM (inactive) | > 100 µM (inactive) | > 100 µM (inactive) | > 100 µM (inactive) | > 100 µM (inactive) | > 100 µM (inactive)
11 | COc1cc2noc(-c3ccccc3)c2cc1OC | 20.2 µM (inactive) | 54.3 µM (inactive) | 27.4 µM (inactive) | 38.7 | 22.4 µM (inactive) | > 100 µM (inactive) | 89.5 µM (inactive) | > 100 µM (inactive) | – | – | 54 µM (inactive) | – | 75.9 µM (inactive) | 34.8 µM (inactive) | 57.3 µM (inactive) | 26.7 µM (inactive) | > 100 µM (inactive) | 34.8 µM (inactive) | 26.4 µM (inactive)
12 | COc1ccc(C(Cc2cc(OC)c(OC)c(OC)c2)C(=O)O)cc1 (stereo unspecified) | 56.5 µM (inactive) | 60 µM (inactive) | 64.1 µM (inactive) | 43.5 | > 100 µM (inactive) | 76.2 µM (inactive) | 45.7 µM (inactive) | 13.6 µM (inactive) | 97.9 µM (inactive) | 24.3 µM (inactive) | 81.8 µM (inactive) | 56.6 µM (inactive) | 52 µM (inactive) | > 100 µM (inactive) | 46.9 µM (inactive) | > 100 µM (inactive) | 54.3 µM (inactive) | 72.3 µM (inactive) | –
